Test results taken from patent publication US20100055168A1, “CATIONIC LIPIDS AND USES THEREOF” (ABBOTT LABORATORIES, priority 2008, published 2010).

Columns and labels:
[1] = Particle sizing assay of in vitro formulations (dynamic light scattering, DynaPro plate reader); type: physicochemical; conditions: Lipid:siRNA 25:1
Protocol: (§1) The siRNA concentrations were measured using Quanti-iT RiboGreen RNA reagent (Molecular Probes, (R11490)). Vesicle sizes were characterized by dynamic light scattering with a DynaPro™ Plate Reader (Wyatt Technology) in 96-well half-area UV plate (Coring) after diluting the formulation sample (20 μL) in phosphate buffered saline (80 μL) at a pH of about 7-8. A 1% agarose gel-based assay was used for analyzing nuclease degradation and protection. Encapsulation efficiency (EE) was calculated using data obtained from a RiboGreen assay.
Particle sizes and size distributions (PDI) were characterized by using dynamic light scattering (DLS). A DLS plate reader (Dynapro™, Wyatt Technology) was used for the DLS measurement. This DLS plate reader uses an 830 nm laser and the scattering angle is 158°. It also can control temperature from 4° C. to 70° C. A 96-well format was employed for the samples.
Samples for DLS analysis were prepared by mixing 20 μL of each sample stock solution with 80 μL PBS directly in the 96-well plate (#3697, Coming). Sample mixing was accomplished using a microplate shaker (Orbis, Mikura Ltd.). Plates were read at 20° C. with an acquisition time of 50 seconds for each sample, and data was analyzed with Wyatt Technology's Dynamics V6 software. To rule out potential multiple scattering artifacts, a second plate at […] reduced sample concentrations was independently prepared by mixing 5 μL stock solutions with 95 μL PBS. Under our experimental conditions the results at the two concentrations were very similar, and the final reported result for each sample represents the average of values obtained from the two plates.

[2] = Ribogreen assay for siRNA encapsulation efficiency of Lipid-Based Particles; type: physicochemical; conditions: Lipid:siRNA 25:1
Protocol: The mixing solution of cationic lipids, cholesterol, non-cationic lipids and PEG-lipids was prepared in ethanol (total concentration at 10 mg/mL). siSTABLE (purchased from ThermoFisher) (sense-5′ GGGGAAAGCUGGCAAGAUUUU-3′ SEQ ID NO: 1) antisense-5′-AAUCUUGCCAGCUUUCCCCUU-3′ SEQ ID NO: 2) % stock solution was prepared in 10 mg/mL of solution by dissolving 10 mg siRNA in 1 mL of RNAse-free UltraPure Water. The calculated amount of siRNA solution was added to 1 mL of citrate buffer (pH 4.0, 20 mM), to provide an siRNA concentration of 0.2 mg/mL, and warmed to 60° C. The calculated amount of lipid solution was warmed to 60° C., transferred to a 0.5 mL syringe with 28½ gauge needle, and injected into the citrate buffer with stirring at 60° C. After 3 minutes, 3 mL of PBS solution at room temperature (pH 7.4) was added into the lipid mixture with stirring. The Lipid-Based Particle solution was cooled to room temperature.
as §1
RNA concentration and encapsulation efficiency were determined using a Quant-iT® Ribogreen RNA reagent and kit available from Invitrogen. The siRNA was released from the Lipid-Based Particle using one of the following reagents: ethanol, Triton X-100, or phenol/chloroform. The siRNA concentration is quantified using fluorescent reading at 480 nm/520 nm.
A round bottom flask was submerged into a 65° C. water bath. Citrate buffer (37.5 ml) of pH 4.0 was pipetted into the flask. The solution was stirred by a magnetic stirring bar at a speed of 900 rpm. Both the pH 4.0 citrate buffer and the lipid solution were pre-warmed in the 65° C. water bath for about 3 minutes. A siRNA solution (0.5 ml) was pipetted into the pH 4.0 citrate buffer. The 12.5 ml lipid mixture solution was injected through a 27 gauge needle into the citrate buffer in about 30 seconds. The needle tip was inserted into the solution during the injection. The resulting solution was stirred for 5 minutes at a speed of 900 rpm. The flask was pulled up from the water bath and a 50 ml pH 7.4 PBS buffer was added into the flask. The final solution was further mixed at a speed of 900 rpm for 5 minutes. For the diafiltration process, a dialysis filter (Millipore, 100K, Cat #PXB100C50) was used to remove ethanol in the above solution. When the volume was reduced to 20 ml during the initial diafiltration, 20 ml of pH 7.4 PBS was added to the sample solution. The diafiltration was continued until the volume was reduced to 20 ml. The diafiltration process was repeated 4 times. The volume of the sample solution was reduced to about 12 ml and pH 7.4 PBS was added to make the final volume of 15 ml. The 15 ml solution was filtered sequentially through the 0.45 and 0.22 μm sterile PVDF membrane filters (Millipore) and immediately transferred into a sterile vial.

[3] = in vitro formulation a: Cationic lipid/Example 56/DSPC/Chol 45/10/15/30 wt %
[4] = in vitro formulation b: Cationic lipid/PEG-Chol/DSPC/Chol 45/10/15/30 wt %

Row | Size [1, 3] [nm] | Size [1, 4] [nm] | % Encapsulation Efficiency [2, 4] [%] | Compound | further results
1 |  |  | 92.3 | CCCCC/C=C\C/C=C\CCCCCCCCOCC(COCCCCCCCC/C=C\C/C=C\CCCCC)NCCCNCCCCNCCCN [Example 25, N-(3-aminopropyl)-N′-{3-[(2-[(9Z,12Z)-octadeca-9,12-dienyloxy]-1-{[(9Z,12Z)-octadeca-9,12-dienyloxy]methyl}ethyl)amino]propyl}butane-1,4-diamine] | 
2 |  |  | 99.9 | CCCCC/C=C\C/C=C\CCCCCCCCOCC(CNCCCN1CCCC1)COCCCCCCCC/C=C\C/C=C\CCCCC [Example 26, N-(3-[(9Z,12Z)-octadeca-9,12-dienyloxy]-2-{[(9Z,12Z)-octadeca-9,12-dienyloxy]methyl}propyl)-N-(3-pyrrolidin-1-ylpropyl)amine] | 
3 |  |  | 71.9 | CCCCC/C=C\C/C=C\CCCCCCCCOCC(COCCCCCCCC/C=C\C/C=C\CCCCC)CN(C)C [Example 27, N,N-dimethyl-N-(3-[(9Z,12Z)-octadeca-9,12-dienyloxy]-2-{[(9Z,12Z)-octadeca-9,12-dienyloxy]methyl}propyl)amine] | 
4 |  |  | 93.0 | CCCCC/C=C\C/C=C\CCCCCCCCOCC(COCCCCCCCC/C=C\C/C=C\CCCCC)COC(=O)NCCN(CC)CC [Example 28, 3-[(9Z,12Z)-octadeca-9,12-dienyloxy]-2-{[(9Z,12Z)-octadeca-9,12-dienyloxy]methyl}propyl 2-(diethylamino)ethylcarbamate] | 
5 |  |  | 95.0 | CCCCC/C=C\C/C=C\CCCCCCCCOCC(COCCCCCCCC/C=C\C/C=C\CCCCC)COC(=O)NCCN1CCCC1 [Example 29, 3-[(9Z,12Z)-octadeca-9,12-dienyloxy]-2-{[(9Z,12Z)-octadeca-9,12-dienyloxy]methyl}propyl 2-pyrrolidin-1-ylethylcarbamate] | 
6 |  |  | 95.0 | CCCCC/C=C\C/C=C\CCCCCCCCOCC(COCCCCCCCC/C=C\C/C=C\CCCCC)COC(=O)NCCN(C)C [Example 30, 3-[(9Z,12Z)-octadeca-9,12-dienyloxy]-2-{[(9Z,12Z)-octadeca-9,12-dienyloxy]methyl}propyl 2-(dimethylamino)ethylcarbamate] | 

More lines, now with the values behind:

Row | Compound | Size [1, 3] [nm] | Size [1, 4] [nm] | % Encapsulation Efficiency [2, 4] [%] | further results
7 | CCCCC/C=C\C/C=C\CCCCCCCCOCC(COCCCCCCCC/C=C\C/C=C\CCCCC)N1CCCC1 [Example 1, 1-(2-((9Z,12Z)-octadeca-9,12-dienyloxy)-1-(((9Z,12Z)-octadeca-9,12-dienyloxy)methyl)ethyl)pyrrolidine] | 170 |  |  | PDI (size distribution) [1, 3]: 0.20
8 | CCCCC/C=C\C/C=C\CCCCCCCCOCC(COCCCCCCCC/C=C\C/C=C\CCCCC)N(C)C [Example 2, N,N-dimethyl-N-(2-((9Z,12Z)-octadeca-9,12-dienyloxy)-1-(((9Z,12Z)-octadeca-9,12-dienyloxy)methyl)ethyl)amine] | 134 |  |  | 
9 | CCCCC/C=C\C/C=C\CCCCCCCCOCC(COCCCCCCCC/C=C\C/C=C\CCCCC)N1CCOCC1 [Example 5, 4-(2-((9Z,12Z)-octadeca-9,12-dienyloxy)-1-(((9Z,12Z)-octadeca-9,12-dienyloxy)methyl)ethyl)morpholine] | 143 |  |  | PDI (size distribution) [1, 3]: 0.14
10 | CCCCC/C=C\C/C=C\CCCCCCCCOCC(COCCCCCCCC/C=C\C/C=C\CCCCC)NCCN1CCN(C)CC1 [Example 8, N-(2-(4-methylpiperazin-1-yl)ethyl)-N-(2-((9Z,12Z)-octadeca-9,12-dienyloxy)-1-(((9Z,12Z)-octadeca-9,12-dienyloxy)methyl)ethyl)amine] |  | 107.6 | 81.8 | 
11 | CCCCC/C=C\C/C=C\CCCCCCCCOCC(COCCCCCCCC/C=C\C/C=C\CCCCC)N1CCN(CCCN(C)C)CC1 [Example 10, N,N-dimethyl-N-(3-(4-(2-((9Z,12Z)-octadeca-9,12-dienyloxy)-1-(((9Z,12Z)-octadeca-9,12-dienyloxy)methyl)ethyl)piperazin-1-yl)propyl)amine] |  | 112 | 72.6 | 
12 | CCCCC/C=C\C/C=C\CCCCCCCCOCC(N)COCCCCCCCC/C=C\C/C=C\CCCCC [Example 11, 1,3-bis((9Z,12Z)-octadeca-9,12-dienyloxy)propan-2-amine] | 132 |  |  | % Encapsulation Efficiency [2, 3]: 96.0%
13 | CCCCC/C=C\C/C=C\CCCCCCCCOCC(COCCCCCCCC/C=C\C/C=C\CCCCC)NCC1CCN(C)CC1 [Example 12, N-((1-methylpiperidin-4-yl)methyl)-N-(2-((9Z,12Z)-octadeca-9,12-dienyloxy)-1-(((9Z,12Z)-octadeca-9,12-dienyloxy)methyl)ethyl)amine] |  | 119.8 | 84.9 | 
14 | CCCCC/C=C\C/C=C\CCCCCCCCOCC(COCCCCCCCC/C=C\C/C=C\CCCCC)NCc1cccc(CN2CCCC2)c1 [Example 13, N-(2-((9Z,12Z)-octadeca-9,12-dienyloxy)-1-(((9Z,12Z)-octadeca-9,12-dienyloxy)methyl)ethyl)-N-(3-(pyrrolidin-1-ylmethyl)benzyl)amine] | 146 |  |  | % Encapsulation Efficiency [2, 3]: 97.1%
15 | CCCCC/C=C\C/C=C\CCCCCCCCOCC(COCCCCCCCC/C=C\C/C=C\CCCCC)N(C)CCCN1CCCC1 [Example 14, N-methyl-N-(2-((9Z,12Z)-octadeca-9,12-dienyloxy)-1-(((9Z,12Z)-octadeca-9,12-dienyloxy)methyl)ethyl)-N-(3-pyrrolidin-1-ylpropyl)amine] |  | 128.4 | 88.3 | 
16 | CCCCC/C=C\C/C=C\CCCCCCCCOCC(COCCCCCCCC/C=C\C/C=C\CCCCC)NCc1cccc(CN2CCN(C)CC2)c1 [Example 15, N-(3-((4-methylpiperazin-1-yl)methyl)benzyl)-N-(2-((9Z,12Z)-octadeca-9,12-dienyloxy)-1-(((9Z,12Z)-octadeca-9,12-dienyloxy)methyl)ethyl)amine] | 116 |  |  | % Encapsulation Efficiency [2, 3]: 96.2%
17 | CCCCC/C=C\C/C=C\CCCCCCCCOCC(COCCCCCCCC/C=C\C/C=C\CCCCC)N(C)CC1CCN(C)CC1 [Example 16, N-methyl-N-((1-methylpiperidin-4-yl)methyl)-N-(2-((9Z,12Z)-octadeca-9,12-dienyloxy)-1-(((9Z,12Z)-octadeca-9,12-dienyloxy)methyl)ethyl)amine] |  | 130 | 93.1 | 
18 | CCCCC/C=C\C/C=C\CCCCCCCCOCC(COCCCCCCCC/C=C\C/C=C\CCCCC)N(C)CCCN(C)C [Example 17, N,N,N′-trimethyl-N′-(2-((9Z,12Z)-octadeca-9,12-dienyloxy)-1-(((9Z,12Z)-octadeca-9,12-dienyloxy)methyl)ethyl)propane-1,3-diamine] |  | 121.8 | 87.1 | 
19 | CCCCC/C=C\C/C=C\CCCCCCCCOCC(COCCCCCCCC/C=C\C/C=C\CCCCC)CN1CCCC1 [Example 24, 1-(3-((9Z,12Z)-octadeca-9,12-dienyloxy)-2-(((9Z,12Z)-octadeca-9,12-dienyloxy)methyl)propyl)pyrrolidine] |  |  | 91.7 | 
